In PMC9150124, “Design of a Potent, Selective, and Brain-Penetrant Inhibitor of Wnt-Deactivating Enzyme Notum by Optimization of a Crystallographic Fragment Hit” (Journal of Medicinal Chemistry, 2022):
≈ marks a conversion by molar mass, not a printed value. Where two headings read alike, the source gives them in different places.

How the values were obtained:
[1] = biological target: panel of 485 distinct kinases; experiment: Kinase selectivity panel (SelectScreen); format: biochemical
[2] = biological target: T1, HTR3A (Homo sapiens, UniProt P46098); experiment: Safety47 HTR3A antagonist assay; format: cell-based
T1 construct: Eurofins (DiscoverX Safety47)
Description: (§1) Screening for off-target pharmacology across multiple drug target classes was performed in the DiscoverX Safety47 panel as the SAFETYscan E/IC50 ELECT service by Eurofins (San Diego CA, U.S.A.). Assay information and data are presented in the Supporting Information.
(§2) Safety pharmacology studies
(§3) Screening for off-target pharmacology across multiple drug target classes was performed in the DiscoverX Safety47™ panel as the SAFETYscan E/IC50 ELECT service by eurofins (San Diego CA, U.S.A.). The assays were performed utilizing the PathHunter enzyme fragment complementation (EFC) technology, FLIPR®-based cellular screening assays, KINOMEscan kinase binding assays, and a variety of enzymatic assays (78 assays).

[3] = biological target: T2, nAChR(a4/b2) (Homo sapiens, UniProt P17787+P43681); experiment: Safety47 nAChR(a4/b2) antagonist assay; format: cell-based
T2 construct: Eurofins (DiscoverX Safety47)
Description: as §1, §2, §3

[4] = biological target: T3, NaV1.5 (Homo sapiens, UniProt Q14524); experiment: Safety47 cardiac sodium channel assay; format: cell-based
T3 construct: Eurofins (DiscoverX Safety47)
Description: as §1

[5] = Solubility in dose formulations (cosolvents); format: physicochemical
[6] = Stability in mouse liver microsomes; format: in vitro ADME; conditions: for half-life: mouse, liver microsomes, read-out: MLM Stability t1/2
[7] = Brain tissue binding, rapid equilibrium dialysis; format: in vitro ADME, rat
Description: Method: rapid equilibrium dialysis.
Test System Mouse Brain Homogenate 10% w/v in PBS
Incubation Time 5 h (mouse) or 4 h (rat)
No. of Replicates Two (mouse) or three (rat)
Buffer Phosphate buffer saline, pH 7.4
% Unbound in brain % Bound in brain %
Compound Species / Matrix homogenate SD homogenate Recovery

[8] = in vitro; conditions: dog
[9] = tested on: MDR1 (P-gp); experiment: in vitro; conditions: dog
[10] = tested on: P-gp (MDR1); experiment: in vitro; conditions: dog
[11] = biological target: T4, CYP2C8 (Homo sapiens, UniProt P10632); experiment: CYP450 inhibition in HLM
T4 sequence (P10632 1-490): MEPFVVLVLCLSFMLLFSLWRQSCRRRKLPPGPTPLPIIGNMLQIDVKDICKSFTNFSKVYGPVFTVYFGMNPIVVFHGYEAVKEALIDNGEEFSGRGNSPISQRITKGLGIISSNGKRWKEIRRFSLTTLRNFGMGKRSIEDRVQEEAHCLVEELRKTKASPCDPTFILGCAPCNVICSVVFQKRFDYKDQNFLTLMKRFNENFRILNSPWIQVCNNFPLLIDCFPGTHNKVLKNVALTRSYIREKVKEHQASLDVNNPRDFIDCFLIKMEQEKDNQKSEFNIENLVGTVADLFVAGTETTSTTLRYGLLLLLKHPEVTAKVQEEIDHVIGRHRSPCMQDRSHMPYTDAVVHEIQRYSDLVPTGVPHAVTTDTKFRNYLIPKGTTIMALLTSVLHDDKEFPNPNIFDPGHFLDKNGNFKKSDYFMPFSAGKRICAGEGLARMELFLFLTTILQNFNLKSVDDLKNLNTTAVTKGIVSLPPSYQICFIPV

[12] = biological target: CYP2C9 (Homo sapiens, UniProt P11712); experiment: CYP450 inhibition in HLM
[13] = biological target: CYP3A4 (Homo sapiens, UniProt P08684); experiment: CYP450 inhibition in HLM
[14] = Metabolic stability in dog hepatocytes
[15] = MDCK-MDR1, MDCK-MDR1 AB Papp, apical to basal
[16] = MDCK-MDR1, MDCK-MDR1 BA Papp, basal to apical

Sequence of CYP3A4 (P08684 whole entry): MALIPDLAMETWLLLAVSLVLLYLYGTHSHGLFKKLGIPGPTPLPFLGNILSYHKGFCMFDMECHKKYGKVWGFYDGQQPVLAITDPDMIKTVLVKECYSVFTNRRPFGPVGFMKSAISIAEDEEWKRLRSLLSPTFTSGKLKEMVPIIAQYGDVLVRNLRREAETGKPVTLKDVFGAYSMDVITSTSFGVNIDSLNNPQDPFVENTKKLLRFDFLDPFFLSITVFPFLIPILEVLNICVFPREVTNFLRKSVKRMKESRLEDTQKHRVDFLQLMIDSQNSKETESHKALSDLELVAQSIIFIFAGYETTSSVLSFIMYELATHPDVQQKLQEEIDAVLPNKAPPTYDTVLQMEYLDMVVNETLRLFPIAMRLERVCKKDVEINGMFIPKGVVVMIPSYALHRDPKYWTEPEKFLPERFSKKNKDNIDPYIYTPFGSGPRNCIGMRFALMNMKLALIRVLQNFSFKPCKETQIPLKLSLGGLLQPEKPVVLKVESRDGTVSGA
Sequence of CYP2C9 (P11712 whole entry): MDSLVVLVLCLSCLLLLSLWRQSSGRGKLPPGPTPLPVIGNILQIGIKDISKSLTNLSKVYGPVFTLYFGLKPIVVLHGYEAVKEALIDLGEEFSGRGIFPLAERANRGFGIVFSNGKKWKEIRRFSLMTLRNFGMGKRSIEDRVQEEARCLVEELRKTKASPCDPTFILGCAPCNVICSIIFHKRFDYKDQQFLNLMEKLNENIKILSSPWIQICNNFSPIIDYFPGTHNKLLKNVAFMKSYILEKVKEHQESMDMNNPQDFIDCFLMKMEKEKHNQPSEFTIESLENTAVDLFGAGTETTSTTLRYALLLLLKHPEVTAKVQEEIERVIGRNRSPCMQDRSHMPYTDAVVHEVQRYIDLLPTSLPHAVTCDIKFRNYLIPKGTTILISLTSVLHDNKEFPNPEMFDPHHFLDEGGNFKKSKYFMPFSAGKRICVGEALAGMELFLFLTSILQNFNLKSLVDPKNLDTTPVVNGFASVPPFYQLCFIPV
T2 sequence (P43681 29-627 limits assumed): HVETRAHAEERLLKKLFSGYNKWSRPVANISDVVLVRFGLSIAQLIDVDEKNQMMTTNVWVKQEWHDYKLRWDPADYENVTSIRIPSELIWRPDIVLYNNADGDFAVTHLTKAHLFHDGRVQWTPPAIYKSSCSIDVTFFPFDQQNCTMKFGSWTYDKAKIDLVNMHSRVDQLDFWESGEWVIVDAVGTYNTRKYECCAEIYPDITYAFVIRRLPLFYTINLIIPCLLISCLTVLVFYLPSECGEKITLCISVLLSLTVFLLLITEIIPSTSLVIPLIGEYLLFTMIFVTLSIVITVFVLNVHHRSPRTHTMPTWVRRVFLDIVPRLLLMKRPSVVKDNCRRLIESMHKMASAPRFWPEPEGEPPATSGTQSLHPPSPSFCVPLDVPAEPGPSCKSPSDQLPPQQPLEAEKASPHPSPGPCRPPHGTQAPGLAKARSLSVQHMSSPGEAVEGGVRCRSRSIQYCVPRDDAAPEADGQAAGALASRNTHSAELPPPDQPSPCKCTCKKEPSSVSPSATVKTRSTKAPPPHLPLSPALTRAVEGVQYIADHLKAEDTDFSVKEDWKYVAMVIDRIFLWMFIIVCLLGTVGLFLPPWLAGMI
T2 sequence (P17787 26-502): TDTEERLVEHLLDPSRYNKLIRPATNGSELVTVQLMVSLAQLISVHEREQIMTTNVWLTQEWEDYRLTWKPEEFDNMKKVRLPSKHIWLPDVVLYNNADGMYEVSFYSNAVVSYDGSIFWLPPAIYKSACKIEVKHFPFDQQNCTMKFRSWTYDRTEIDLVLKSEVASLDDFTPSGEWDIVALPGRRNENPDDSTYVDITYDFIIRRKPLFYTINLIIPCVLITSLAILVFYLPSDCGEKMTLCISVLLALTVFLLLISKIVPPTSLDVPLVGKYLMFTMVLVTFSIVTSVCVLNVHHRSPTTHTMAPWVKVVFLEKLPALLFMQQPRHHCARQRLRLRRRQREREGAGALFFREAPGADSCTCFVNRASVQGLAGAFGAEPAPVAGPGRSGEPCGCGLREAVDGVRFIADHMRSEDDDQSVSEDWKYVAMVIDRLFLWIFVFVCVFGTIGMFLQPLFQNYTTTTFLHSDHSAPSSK
T1 sequence (P46098 24-478): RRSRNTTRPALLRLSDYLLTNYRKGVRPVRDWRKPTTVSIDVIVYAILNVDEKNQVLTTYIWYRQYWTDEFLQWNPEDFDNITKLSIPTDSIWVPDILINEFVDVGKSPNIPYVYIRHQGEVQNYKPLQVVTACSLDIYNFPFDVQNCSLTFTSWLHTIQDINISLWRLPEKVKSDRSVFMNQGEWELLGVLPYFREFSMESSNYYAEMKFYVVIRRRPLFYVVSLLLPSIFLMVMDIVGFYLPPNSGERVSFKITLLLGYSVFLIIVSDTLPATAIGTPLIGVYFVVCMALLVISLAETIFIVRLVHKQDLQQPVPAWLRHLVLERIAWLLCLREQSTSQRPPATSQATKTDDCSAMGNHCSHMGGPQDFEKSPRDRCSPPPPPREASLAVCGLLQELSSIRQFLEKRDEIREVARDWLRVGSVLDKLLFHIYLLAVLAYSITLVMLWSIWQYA
T3 sequence (Q14524 whole entry): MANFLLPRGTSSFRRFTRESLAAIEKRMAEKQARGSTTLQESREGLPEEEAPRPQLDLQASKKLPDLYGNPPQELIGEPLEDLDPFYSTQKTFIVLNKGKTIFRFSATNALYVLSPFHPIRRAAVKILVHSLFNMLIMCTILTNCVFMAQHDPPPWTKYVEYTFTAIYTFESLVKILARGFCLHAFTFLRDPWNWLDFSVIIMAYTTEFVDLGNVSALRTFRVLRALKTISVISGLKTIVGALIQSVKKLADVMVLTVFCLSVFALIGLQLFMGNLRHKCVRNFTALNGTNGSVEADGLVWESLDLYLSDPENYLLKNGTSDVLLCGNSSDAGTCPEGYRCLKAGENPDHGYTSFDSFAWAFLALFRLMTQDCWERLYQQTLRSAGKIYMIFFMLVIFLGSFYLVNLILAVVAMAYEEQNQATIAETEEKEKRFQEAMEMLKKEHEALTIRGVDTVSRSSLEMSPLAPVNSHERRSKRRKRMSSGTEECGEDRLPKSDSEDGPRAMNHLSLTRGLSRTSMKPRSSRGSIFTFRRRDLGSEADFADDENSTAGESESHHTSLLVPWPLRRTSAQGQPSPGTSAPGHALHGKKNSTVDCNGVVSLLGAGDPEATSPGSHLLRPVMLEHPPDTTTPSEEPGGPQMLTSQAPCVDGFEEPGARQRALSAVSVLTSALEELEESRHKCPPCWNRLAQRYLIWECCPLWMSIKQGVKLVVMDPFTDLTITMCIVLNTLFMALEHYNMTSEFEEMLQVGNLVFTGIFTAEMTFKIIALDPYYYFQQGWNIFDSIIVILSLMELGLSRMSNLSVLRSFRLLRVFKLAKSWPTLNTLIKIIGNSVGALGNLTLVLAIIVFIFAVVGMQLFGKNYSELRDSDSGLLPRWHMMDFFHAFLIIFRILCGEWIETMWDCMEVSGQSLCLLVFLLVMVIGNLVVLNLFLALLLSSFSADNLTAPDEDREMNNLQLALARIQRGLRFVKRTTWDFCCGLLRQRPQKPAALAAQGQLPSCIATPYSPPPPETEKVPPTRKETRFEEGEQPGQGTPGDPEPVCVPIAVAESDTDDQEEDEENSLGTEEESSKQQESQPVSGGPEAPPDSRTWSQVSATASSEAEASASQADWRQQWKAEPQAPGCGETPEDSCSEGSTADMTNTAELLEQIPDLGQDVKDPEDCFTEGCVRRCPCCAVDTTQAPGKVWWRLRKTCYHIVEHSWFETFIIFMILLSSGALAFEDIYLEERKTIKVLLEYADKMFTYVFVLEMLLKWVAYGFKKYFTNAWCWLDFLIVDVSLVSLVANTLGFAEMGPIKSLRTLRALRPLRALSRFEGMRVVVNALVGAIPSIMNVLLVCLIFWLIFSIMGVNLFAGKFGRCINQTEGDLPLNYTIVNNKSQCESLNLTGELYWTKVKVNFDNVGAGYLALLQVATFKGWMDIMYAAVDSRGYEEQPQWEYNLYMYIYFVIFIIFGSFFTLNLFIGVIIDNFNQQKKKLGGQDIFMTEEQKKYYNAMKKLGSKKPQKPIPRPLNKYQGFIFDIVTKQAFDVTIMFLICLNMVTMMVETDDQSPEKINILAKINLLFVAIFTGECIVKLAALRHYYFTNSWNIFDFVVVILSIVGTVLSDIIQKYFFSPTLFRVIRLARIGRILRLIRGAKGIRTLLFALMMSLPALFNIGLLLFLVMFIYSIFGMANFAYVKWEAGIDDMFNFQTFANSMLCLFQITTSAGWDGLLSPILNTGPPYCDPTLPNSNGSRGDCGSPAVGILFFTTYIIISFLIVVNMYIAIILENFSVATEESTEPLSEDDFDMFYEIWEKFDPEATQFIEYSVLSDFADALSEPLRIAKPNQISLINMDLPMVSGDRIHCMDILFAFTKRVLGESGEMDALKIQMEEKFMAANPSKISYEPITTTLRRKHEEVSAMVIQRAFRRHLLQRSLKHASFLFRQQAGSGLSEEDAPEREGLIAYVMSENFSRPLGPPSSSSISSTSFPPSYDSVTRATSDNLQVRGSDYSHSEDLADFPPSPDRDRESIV

For `FC(F)(F)c1c(Cl)ccc(-n2ccnn2)c1Cl` [8l, 1-(2,4-Dichloro-3-(trifluoromethyl)phenyl)-1H-1,2,3-triazole], the “kinases with >50% inhibition” value ([1]; @10 μM) was 0/485, the “inhibition for all kinases of the panel” value ([1]; at 10 μM) was < 50% and the IC50 [2] was 4.5 µM. For the same compound, the IC50 ([3]; Figure S14, read-out: nAChR(a4/b2) antagonist RC50) was 10.2 µM, the IC50 ([3]; read-out: nAChR(a4/b2) IC50) was 10 µM and the IC50 [4] was > 30 µM. The solubility ([5]; 2% DMSO in PBS (with 10% solutol v/v), read-out: Solubility) was 3000 µg/mL (≈ 10.6 mM), the “Mean Concentration of dose formulation” value ([5]; 20% w/v HPßCD in Water) was 1000 µg/mL and the “Mean Concentration of dose formulation” value ([5]; DMSO (2%v/v) + 10% v/v HPßCD in WFI (98% v/v/)) was 1020 µg/mL. The “Mean Concentration of dose formulation” value ([5]; DMSO (2%v/v) + 10% v/v Solutol in PBS (98% v/v)) was 960 µg/mL, the solubility ([5]; dose formulations with cosolvents, read-out: aqueous solubility with cosolvents) was 1000 µg/mL (≈ 3.55 mM) and the “MLM Cli” value [6] was 3.2 μL/min/mg protein. The “Liver microsome stability Cli, MLM” value ([6]; additional study (Table 5)) was 11.7 μL/min/mg protein, the half-life ([6]; Table S4) was 2 h and the half-life ([6]; Table S8) was 1.97 h. For the same compound, the fraction unbound at 4 h, 2 µM ([7]; brain homogenate, pH 7.4, SD rat, 4 h) was 0.029, the recovery at 4 h, 2 µM ([7]; pH 7.4, SD rat brain homogenate) was 86.8% and the “Brain binding, % bound” value ([7]; rat brain homogenate) was 97.1%. The Papp [8, 15] was 31 ×10⁻⁶ cm/s, the Papp [8, 16] was 39 ×10⁻⁶ cm/s and the recovery ([9]; MDCK-MDR1, MDR1-MDCKII A to B % Recovery) was 85.1%. The recovery ([9]; MDCK-MDR1, MDR1-MDCKII B to A % Recovery) was 90.5%, the Papp [10, 15] was 31.4 ×10⁻⁶ cm/s and the Papp [10, 16] was 39.2 ×10⁻⁶ cm/s. For the same compound, the IC50 ([11]; read-out: CYP inhibition IC50, 2C8, HLM) was > 50 µM, the IC50 ([11]; read-out: IC50 CYP2C8/Amodiaquine, (+)NADPH pre-incubation) was > 50 µM and the IC50 ([11]; read-out: IC50 CYP2C8/Amodiaquine, (-)NADPH pre-incubation) was > 50 µM. For the same compound, the IC50 [12] was 19.6 µM, the IC50 ([12]; read-out: CYP inhibition IC50, 2C9, HLM) was 15 µM and the IC50 ([12]; read-out: IC50 CYP2C9/Diclofenac, (+)NADPH pre-incubation) was 15.4 µM. The IC50 ([13]; read-out: CYP inhibition IC50, 3A4(mid.), HLM, midazolam) was > 50 µM, the IC50 ([13]; read-out: CYP inhibition IC50, 3A4(test.), HLM, testosterone) was > 50 µM and the IC50 ([13]; read-out: IC50 CYP3A4/Midazolam, (+)NADPH pre-incubation) was > 50 µM. The IC50 ([13]; read-out: IC50 CYP3A4/Midazolam, (-)NADPH pre-incubation) was > 50 µM, the IC50 ([13]; read-out: IC50 CYP3A4/Testosterone, (+)NADPH pre-incubation) was > 50 µM and the IC50 ([13]; read-out: IC50 CYP3A4/Testosterone, (-)NADPH pre-incubation) was > 50 µM. For the same compound, the half-life [14] was > 3.61 h and the hepatocyte CLint [14] was < 6.4 µL/min/1e6 cells.
